Assays:
H929 = test: Anti-proliferative activity, 96 hours; conditions: Homo sapiens, NCI-H929, 96 h
KARPASS422 = test: Anti-proliferative activity, 96 hours
[1] = test system: NCI-H929 multiple myeloma tumors; test: NCI-H929 multiple myeloma xenograft, NOD SCID mice (Example 13); type: in vivo; conditions: 3000 μg/kg PO QD
Protocol: Compound 1 efficacy in two multiple myeloma cell lines (NC-H929) and (RPMI-8226) was evaluated at four different doses: 3 μg/kg, 10 μg/kg, 30 μg/kg, and 100 μg/kg. Compound 1 was administered QD (every day) orally (PO). […]
For the NCI-H929 cells, the xenograft study was conducted in female NOD SCID mice bearing NCI-H929 multiple myeloma tumors.
(§1) Statistical analysis was performed using two-way analysis of variance (ANOVA). Data are expressed as MTV±SEM.

[2] = test system: Caspase 3/7 activity in TMD8 cells; test: Apoptosis induction, Caspase 3/7 activity in TMD8 cells; conditions: Homo sapiens, TMD8, 48 h, read-out: EC50, caspase 3/7 activity
Protocol: 30 μL TMD8 cells were seeded into the 384-well plates in RPMI medium containing 10% FBS at a cell density of 2000 cells per well. Cells treated in the absence of the test compound were the negative control. Following compound treatment, cells were incubated at 37° C. with 5% CO2 for 48 hr. 30 μL reconstituted Caspase 3/7 Assay detection reagent was added to each well and luminescence was acquired on EnVision™ Multilabel Reader (PerkinElmer, Santa Clara, Calif., USA).

HuT 102 = test: Anti-proliferative activity, 96 hours; conditions: HuT-102, 96 h
SU-DHL-5 = test: Anti-proliferative activity, 96 hours; conditions: Homo sapiens, SU-DHL-5, 96 h
TMD8 = test: Anti-proliferative activity, 96 hours; conditions: Homo sapiens, TMD8, 96 h
SU-DHL-1 = test: Anti-proliferative activity, 96 hours; conditions: Homo sapiens, SU-DHL-1, 96 h
[3] = test system: REC1 mantle cell lymphoma tumors; test: REC1 mantle cell lymphoma xenograft, balb/c nude mice; type: in vivo; conditions: Compound 1 10, 30, or 100 μg/kg; pomalidomide 3000 μg/kg; 18 days
Protocol: A xenograft study was conducted in female balb/c nude mice bearing REC1 mantle cell lymphoma tumors.
as §1

RPMI-8226 tumors = test: RPMI-8226 xenograft, crossover from pomalidomide to Compound 1; type: in vivo, mice; conditions: 3000 μg/kg/day for 17 days
Protocol: Vehicle treated animals were treated for 28 days until tumors reached a MTV of 2211 mm^3. […] Data are expressed as MTV±SEM.
Tumor growth was monitored throughout the study. […] Measurements were twice weekly. The health of the mice was monitored, and noteworthy clinical observations were recorded. Acceptable toxicity was defined as a group's mean BW loss of less than 20% during the study and not more than one treatment related death among ten treated animals, or 10%.
Animals were weighed on a twice weekly schedule.

Farage = test: Anti-proliferative activity, 96 hours
MM.1S = test: Anti-proliferative activity, 96 hours; conditions: Homo sapiens, MM1.S
SU-DHL-2 = test: Anti-proliferative activity, 96 hours; conditions: Homo sapiens, SU-DHL-2, 96 h
OCI-LY10 = test: Anti-proliferative activity, 96 hours; conditions: Homo sapiens, OCI-Ly10, 96 h
RPMI 8226 = test: Anti-proliferative activity, 96 hours; conditions: Homo sapiens, RPMI-8226, 96 h
RL = test: Anti-proliferative activity, 96 hours; conditions: Homo sapiens
KMM-1 = test: Anti-proliferative activity, 96 hours; conditions: KMM-1, 96 h
TMD8 DLBCL tumors = test: TMD8 DLBCL xenograft, NOD SCID mice; type: in vivo; conditions: Compound 1 100 μg/kg; pomalidomide 3000 μg/kg; 18 days
Protocol: A xenograft study was also conducted in female NOD SCID mice bearing TMD8 DLBCL tumors.
as §1

Rec-1 = test: Anti-proliferative activity, 96 hours; conditions: Homo sapiens, Rec1, 96 h
Maver-1 = test: Anti-proliferative activity, 96 hours; conditions: Homo sapiens, Maver1, 96 h
LP-1 = test: Anti-proliferative activity, 96 hours; conditions: Homo sapiens, LP-1, 96 h
Jeko-1 = test: Anti-proliferative activity, 96 hours; conditions: Homo sapiens, JeKo-1, 96 h
MM.1R = test: Anti-proliferative activity, 96 hours
DL40 = test: Anti-proliferative activity, 96 hours
Mino = test: Anti-proliferative activity, 96 hours; conditions: Homo sapiens
KIJK = test: Anti-proliferative activity, 96 hours
WSU-DLCL2 = test: Anti-proliferative activity, 96 hours; conditions: Homo sapiens, WSUDLCL2, 96 h
[4] = test system: IMiD-resistant NCIH929 cells; test: Growth of IMiD-resistant NCIH929 cells (CellTiter-Glo); conditions: at concentrations up to 10 μM
Protocol: Briefly, test compound was added to 384-well plates at a top concentration of 10 μM with 14 points, half log titration in duplicates. NCIH929 cells were seeded into the 384-well plates in RPMI medium containing 10% FBS and 0.05 mM 2-mercaptoethanol at a cell density of 750 cells per well. Cells treated in the absence of the test compound were the negative control and cells treated in the absence of CellTiter-Glo® 2.0 were the positive control. Cells treated with the test compounds were incubated at 37° C. with 5% CO2 for 96 hr. CellTiter-Glo reagent was then added to the cells and luminescence was acquired on EnVision™ Multilabel Reader (PerkinElmer, Santa Clara, Calif., USA). % Viability was determined by normalizing the signal with positive and DMSO treated negative controls on the same microtiter plate.

[5] = test system: Caspase 3/7 activity in NCIH929 multiple myeloma cells; test: Apoptosis induction, Caspase 3/7 activity in NCIH929 cells; type: cell-based; conditions: Homo sapiens, NCI-H929, 72 h, read-out: EC50, caspase 3/7 activity
Protocol: 30 μL NCIH929 cells were seeded into the 384-well plates in RPMI medium containing 10% FBS and 0.05 mM 2-mercaptoethanol at a cell density of 1000 cells per well. Cells treated in the absence of the test compound were the negative control. Following compound treatment, cells were incubated at 37° C. with 5% CO2 for 72 hr. 30 μL reconstituted Caspase 3/7 Assay detection reagent was added to each well and luminescence was acquired on EnVision™ Multilabel Reader (PerkinElmer, Santa Clara, Calif., USA).

OPM-2 = test: Anti-proliferative activity, 96 hours; conditions: Homo sapiens, OPM-2, 96 h
SR = test: Anti-proliferative activity, 96 hours; conditions: Homo sapiens
DOHH-2 = test: Anti-proliferative activity, 96 hours; conditions: Homo sapiens, DOHH-2, 96 h
IKZF1 = IKZF1 (Homo sapiens, UniProt Q13422+Q96SW2)
Chain of IKZF1 (Q13422 whole entry): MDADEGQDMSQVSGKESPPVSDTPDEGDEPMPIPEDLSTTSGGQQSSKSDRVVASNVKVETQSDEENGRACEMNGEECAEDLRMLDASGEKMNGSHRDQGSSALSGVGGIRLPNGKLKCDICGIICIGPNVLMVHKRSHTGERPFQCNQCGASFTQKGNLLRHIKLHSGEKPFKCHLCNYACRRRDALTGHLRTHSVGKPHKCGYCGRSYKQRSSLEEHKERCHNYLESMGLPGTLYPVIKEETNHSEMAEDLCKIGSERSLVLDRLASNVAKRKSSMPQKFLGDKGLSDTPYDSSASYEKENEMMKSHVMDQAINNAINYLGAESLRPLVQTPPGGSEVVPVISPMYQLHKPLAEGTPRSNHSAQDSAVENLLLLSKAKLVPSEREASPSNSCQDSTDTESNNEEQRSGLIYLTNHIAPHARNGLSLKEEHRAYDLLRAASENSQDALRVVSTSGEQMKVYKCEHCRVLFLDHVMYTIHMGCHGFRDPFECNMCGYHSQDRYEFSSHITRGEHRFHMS
Chain of IKZF1 (Q96SW2 whole entry): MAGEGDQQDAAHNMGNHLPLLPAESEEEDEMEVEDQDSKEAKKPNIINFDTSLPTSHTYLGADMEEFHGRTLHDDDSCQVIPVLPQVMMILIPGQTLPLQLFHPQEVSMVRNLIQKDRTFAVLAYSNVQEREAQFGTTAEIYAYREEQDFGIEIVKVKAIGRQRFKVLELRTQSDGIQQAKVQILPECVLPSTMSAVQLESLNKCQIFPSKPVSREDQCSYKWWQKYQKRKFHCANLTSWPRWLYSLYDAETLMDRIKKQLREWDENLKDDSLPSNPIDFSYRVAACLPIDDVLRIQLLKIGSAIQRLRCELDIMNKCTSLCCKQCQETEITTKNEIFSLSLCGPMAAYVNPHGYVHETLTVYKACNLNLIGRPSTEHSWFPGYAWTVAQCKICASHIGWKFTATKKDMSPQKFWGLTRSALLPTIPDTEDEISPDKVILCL
Chain of IKZF1 (Q16531 2-1140 partner limits assumed): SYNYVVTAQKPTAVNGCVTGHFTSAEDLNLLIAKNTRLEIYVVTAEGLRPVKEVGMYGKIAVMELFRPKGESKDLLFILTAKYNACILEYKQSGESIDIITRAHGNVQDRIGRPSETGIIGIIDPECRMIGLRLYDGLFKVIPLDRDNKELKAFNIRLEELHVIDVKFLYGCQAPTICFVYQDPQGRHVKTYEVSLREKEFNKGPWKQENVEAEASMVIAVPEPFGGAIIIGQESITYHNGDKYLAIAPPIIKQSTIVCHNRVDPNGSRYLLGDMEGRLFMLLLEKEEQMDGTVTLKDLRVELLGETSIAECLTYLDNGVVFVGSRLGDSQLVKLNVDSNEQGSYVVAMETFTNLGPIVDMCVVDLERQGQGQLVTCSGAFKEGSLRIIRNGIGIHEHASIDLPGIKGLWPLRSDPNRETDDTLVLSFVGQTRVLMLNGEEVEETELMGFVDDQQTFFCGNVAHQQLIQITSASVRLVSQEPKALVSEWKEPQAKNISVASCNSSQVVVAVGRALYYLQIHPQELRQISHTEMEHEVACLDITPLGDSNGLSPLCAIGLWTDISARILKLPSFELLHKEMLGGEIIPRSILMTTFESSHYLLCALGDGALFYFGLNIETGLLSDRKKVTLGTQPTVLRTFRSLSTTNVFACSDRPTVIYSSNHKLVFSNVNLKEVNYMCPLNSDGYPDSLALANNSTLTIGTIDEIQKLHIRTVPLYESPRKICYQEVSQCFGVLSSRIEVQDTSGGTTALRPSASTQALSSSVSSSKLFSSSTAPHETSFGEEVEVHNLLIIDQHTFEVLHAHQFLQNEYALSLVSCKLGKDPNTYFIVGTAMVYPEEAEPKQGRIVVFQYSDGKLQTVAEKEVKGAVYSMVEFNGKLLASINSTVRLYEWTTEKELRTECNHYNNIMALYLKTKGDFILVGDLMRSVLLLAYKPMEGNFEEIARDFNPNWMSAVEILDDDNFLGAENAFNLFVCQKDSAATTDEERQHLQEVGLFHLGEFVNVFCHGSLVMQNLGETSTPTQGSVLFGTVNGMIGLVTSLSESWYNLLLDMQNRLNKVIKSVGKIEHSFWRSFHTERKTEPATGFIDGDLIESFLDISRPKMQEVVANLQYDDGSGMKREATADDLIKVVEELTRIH
Protocol: Endogenous expression of IKZF1 in NCIH929 cells was determined by addition of N-terminal HiBiT tag to the NCIH929 cell line using CRISPR-Cas9. Briefly, test compound was added to 384-well plates at a top concentration of 1 μM with 10 points, half log titration in duplicates. NCIH929 cells expressing HiBiT-tagged IKZF1 were seeded into the 384-well plates in RPMI medium containing 10% FBS and 0.05 mM 2-mercaptoethanol at a cell density of 15000 cells per well. Cells treated in the absence of the test compound were the negative control and wells containing media only were the positive control. Following compound treatment, cells were incubated at 37° C. with 5% CO2 for 1.5 hr. HiBiT signal was determined using Nano-Glo™ HiBiT Lytic Assay System (Promega, N3050) and luminescence was acquired on EnVision™ Multilabel Reader (PerkinElmer, Santa Clara, Calif., USA). % IKZF1 remaining was determined by normalizing the signal with positive and negative controls on the same microtiter plate. […] Curve fit and IC50 determination was performed by 4 parametric regression analysis.
NCIH929 cells expressing HiBiT-tagged IKZF1 were seeded into the 384-well plates in RPMI medium containing 10% FBS and 0.05 mM 2-mercaptoethanol at a cell density of 15000 cells per well. Cells treated in the absence of the test compound were the negative control and wells containing media only were the positive control. Following compound treatment, cells were incubated at 37° C. with 5% CO2 for 1 or 2 hr. HiBiT signal was determined using Nano-Glo™ HiBiT Lytic Assay System (Promega, N3050) and luminescence was acquired on EnVision™ Multilabel Reader (PerkinElmer, Santa Clara, Calif., USA). % IKZF1 remaining was determined by normalizing the signal with positive and negative controls on the same microtiter plate. Curve fit and IC50 determination was performed by 4 parametric regression analysis.

NCIH929 cells = test: NCI-H929 viability assay (CellTiter-Glo); conditions: 96 hours
Protocol: NCIH929 cell viability was determined based on quantification of ATP using CellTiter-Glo®2.0 luminescent Assay kit, which signals the presence of metabolically-active cells. Briefly, test compound was added to 384-well plates at a top concentration of 1 μM with 10 points, half log titration in duplicates. NCIH929 cells were seeded into the 384-well plates in RPMI medium containing 10% FBS and 0.05 mM 2-mercaptoethanol at a cell density of 750 cells per well. Cells treated in the absence of the test compound were the negative control and cells treated in the absence of CellTiter-Glo® 2.0 were the positive control. Cells treated with the test compounds were incubated at 37° C. with 5% CO2 for 96 hr. CellTiter-Glo reagent was then added to the cells and Luminescence was acquired on EnVision™ Multilabel Reader (PerkinElmer, Santa Clara, Calif., USA). % Viability was determined by normalizing the signal with positive and DMSO treated negative controls on the same microtiter plate. […] Curve fit and IC502 determination was performed by 4 parametric regression analysis.

Pfeiffer = test: Anti-proliferative activity, 96 hours; conditions: Homo sapiens
HH = test: Anti-proliferative activity, 96 hours; conditions: Homo sapiens
KMS-26 = test: Anti-proliferative activity, 96 hours; conditions: KMS-26, 96 h

IC50 (H929): 171 nM | IC50 (KARPASS422): 24.4 nM | EC50 [2]: 1200 nM | IC50 (SU-DHL-5): > 10000 nM | IC50 (SU-DHL-1): 378 nM | IC50 (MM.1S): 71 nM | IC50 (SU-DHL-2): > 10000 nM | IC50 (OCI-LY10): 47.7 nM | IC50 (MM.1R): 193 nM | EC50 [5]: 407 nM | Emax (IKZF1; NCI-H929, read-out: Mean Emax (%) ± SD, IKZF1 Degradation): 55.7 ± 6% | IKZF1 degradation (IKZF1; after 1 hour treatment): less than 25% | IC50 (NCIH929 cells; read-out: Mean IC50 (nM), H929 Viability): 141 nM
Structure (SMILES): Nc1cccc2c1C(=O)N(C1CCC(=O)NC1=O)C2=O (stereo not drawn) [Pomalidomide, reference compound]
Statistical Significance Compared to Vehicle [1]: 0.718 | IC50 (HuT 102): > 10000 nM | IC50 (TMD8): 327 nM | tumor volume [3]: increased | tumor response (RPMI-8226 tumors): no response | IC50 (Farage): > 10000 nM | IC50 (RPMI 8226): > 10000 nM | IC50 (RL): > 10000 nM | IC50 (KMM-1): 527 nM | tumor volume (TMD8 DLBCL tumors): increased | IC50 (Rec-1): 44.8 nM | IC50 (Maver-1): > 10000 nM | IC50 (LP-1): 576 nM | IC50 (Jeko-1): > 10000 nM | IC50 (DL40): > 10000 nM | IC50 (Mino): 426 nM | IC50 (KIJK): 4330 nM | IC50 (WSU-DLCL2): > 10000 nM | growth inhibition [4]: less than 50% | IC50 (OPM-2): 93.3 nM | IC50 (SR): > 10000 nM | IC50 (DOHH-2): 1150 nM | Mean Emax (%) ± SD, H929 Viability (NCIH929 cells; % viability): 15.6 ± 4.2% | IC50 (Pfeiffer): > 10000 nM | IC50 (HH): > 10000 nM | IC50 (KMS-26): 2090 nM

— patent US20230190760A1, “ADVANTAGEOUS THERAPIES FOR DISORDERS MEDIATED BY IKAROS OR AIOLOS” (C4 Therapeutics, Inc., priority 2020, published 2023)
